Our source for the Ki and Ratio Ki values is ChEMBL document CHEMBL3734753, “Phenyl Ether- and Aniline-Containing 2-Aminoquinolines as Potent and Selective Inhibitors of Neuronal Nitric Oxide Synthase” (J Med Chem, 2015).

Assay [1] addresses T1, Nitric oxide synthase 3 (Bos taurus, UniProt P29473).
T1 sequence (P29473 whole entry): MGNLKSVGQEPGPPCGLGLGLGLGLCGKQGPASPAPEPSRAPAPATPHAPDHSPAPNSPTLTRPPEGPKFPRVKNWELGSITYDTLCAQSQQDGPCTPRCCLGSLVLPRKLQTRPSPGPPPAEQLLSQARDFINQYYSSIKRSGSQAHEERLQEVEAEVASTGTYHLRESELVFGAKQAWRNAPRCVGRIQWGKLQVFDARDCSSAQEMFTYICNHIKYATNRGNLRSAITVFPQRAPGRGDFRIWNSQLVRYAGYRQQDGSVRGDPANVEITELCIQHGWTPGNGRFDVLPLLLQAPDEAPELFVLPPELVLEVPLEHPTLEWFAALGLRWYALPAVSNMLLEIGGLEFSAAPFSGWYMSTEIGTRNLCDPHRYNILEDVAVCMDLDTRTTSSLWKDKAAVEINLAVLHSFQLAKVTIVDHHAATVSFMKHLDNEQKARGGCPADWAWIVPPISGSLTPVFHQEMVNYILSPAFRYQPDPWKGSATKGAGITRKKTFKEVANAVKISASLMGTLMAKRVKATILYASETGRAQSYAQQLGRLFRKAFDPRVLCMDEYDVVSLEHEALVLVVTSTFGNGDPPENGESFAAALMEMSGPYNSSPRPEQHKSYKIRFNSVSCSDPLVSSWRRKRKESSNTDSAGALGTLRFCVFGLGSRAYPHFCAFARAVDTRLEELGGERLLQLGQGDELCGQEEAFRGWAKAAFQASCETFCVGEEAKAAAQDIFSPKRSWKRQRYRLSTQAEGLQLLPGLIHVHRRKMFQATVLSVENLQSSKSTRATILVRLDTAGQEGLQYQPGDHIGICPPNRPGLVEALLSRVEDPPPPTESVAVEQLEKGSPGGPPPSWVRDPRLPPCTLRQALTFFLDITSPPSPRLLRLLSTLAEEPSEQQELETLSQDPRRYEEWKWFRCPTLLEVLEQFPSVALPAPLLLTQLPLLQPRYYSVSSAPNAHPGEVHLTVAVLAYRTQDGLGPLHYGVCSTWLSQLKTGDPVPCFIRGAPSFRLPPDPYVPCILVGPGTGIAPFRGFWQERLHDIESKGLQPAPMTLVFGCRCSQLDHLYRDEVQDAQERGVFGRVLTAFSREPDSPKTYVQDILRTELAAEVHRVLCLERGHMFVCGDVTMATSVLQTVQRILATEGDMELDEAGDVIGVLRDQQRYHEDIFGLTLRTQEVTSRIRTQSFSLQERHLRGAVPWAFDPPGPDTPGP
The assay can be described thus: Inhibition of recombinant bovine eNOS expressed in Escherichia coli assessed as nitric oxide production by hemoglobin capture assay.

Assay [2] is described as follows: Selectivity ratio of Ki for wild type recombinant rat nNOS to Ki for bovine eNOS.
Assay [3] concerns the target T2, Nitric oxide synthase, inducible (Mus musculus, UniProt P29477).
T2 sequence (P29477 whole entry): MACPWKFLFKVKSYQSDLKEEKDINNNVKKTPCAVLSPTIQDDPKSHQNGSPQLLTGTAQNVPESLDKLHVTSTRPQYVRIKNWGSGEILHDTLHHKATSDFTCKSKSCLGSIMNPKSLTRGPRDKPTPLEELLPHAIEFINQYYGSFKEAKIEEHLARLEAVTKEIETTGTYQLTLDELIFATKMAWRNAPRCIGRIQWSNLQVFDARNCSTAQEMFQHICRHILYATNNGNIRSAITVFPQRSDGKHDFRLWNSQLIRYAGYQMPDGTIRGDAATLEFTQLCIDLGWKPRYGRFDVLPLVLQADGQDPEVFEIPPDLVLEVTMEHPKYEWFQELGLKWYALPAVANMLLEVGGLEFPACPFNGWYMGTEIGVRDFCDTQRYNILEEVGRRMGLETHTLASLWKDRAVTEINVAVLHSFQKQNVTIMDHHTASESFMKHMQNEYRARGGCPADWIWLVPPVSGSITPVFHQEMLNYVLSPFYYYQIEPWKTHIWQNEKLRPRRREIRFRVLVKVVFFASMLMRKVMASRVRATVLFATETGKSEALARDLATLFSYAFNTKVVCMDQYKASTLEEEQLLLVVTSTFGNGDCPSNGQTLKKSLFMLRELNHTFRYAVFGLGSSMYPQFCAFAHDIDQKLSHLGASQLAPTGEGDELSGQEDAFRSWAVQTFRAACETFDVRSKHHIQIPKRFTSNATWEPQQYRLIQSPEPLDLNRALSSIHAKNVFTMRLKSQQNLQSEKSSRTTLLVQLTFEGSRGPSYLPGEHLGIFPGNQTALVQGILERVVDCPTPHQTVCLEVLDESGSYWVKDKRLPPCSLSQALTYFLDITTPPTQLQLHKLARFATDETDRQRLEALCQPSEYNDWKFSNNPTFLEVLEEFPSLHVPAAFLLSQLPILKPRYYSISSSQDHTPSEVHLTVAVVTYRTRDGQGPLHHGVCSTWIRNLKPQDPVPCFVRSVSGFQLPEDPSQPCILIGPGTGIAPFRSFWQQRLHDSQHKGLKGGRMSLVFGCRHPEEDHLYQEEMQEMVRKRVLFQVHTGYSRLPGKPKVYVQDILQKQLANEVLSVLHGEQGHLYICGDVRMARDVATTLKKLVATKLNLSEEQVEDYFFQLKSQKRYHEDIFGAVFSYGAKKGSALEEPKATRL

Assay [4] deals with Nitric oxide synthase 1 (Rattus norvegicus, UniProt P29476). The assay can be described thus: Inhibition of wild type recombinant rat nNOS expressed in Escherichia coli assessed as nitric oxide production by hemoglobin capture assay.
Sequence of Nitric oxide synthase 1 (Rattus norvegicus, UniProt P29476) (P29476 whole entry): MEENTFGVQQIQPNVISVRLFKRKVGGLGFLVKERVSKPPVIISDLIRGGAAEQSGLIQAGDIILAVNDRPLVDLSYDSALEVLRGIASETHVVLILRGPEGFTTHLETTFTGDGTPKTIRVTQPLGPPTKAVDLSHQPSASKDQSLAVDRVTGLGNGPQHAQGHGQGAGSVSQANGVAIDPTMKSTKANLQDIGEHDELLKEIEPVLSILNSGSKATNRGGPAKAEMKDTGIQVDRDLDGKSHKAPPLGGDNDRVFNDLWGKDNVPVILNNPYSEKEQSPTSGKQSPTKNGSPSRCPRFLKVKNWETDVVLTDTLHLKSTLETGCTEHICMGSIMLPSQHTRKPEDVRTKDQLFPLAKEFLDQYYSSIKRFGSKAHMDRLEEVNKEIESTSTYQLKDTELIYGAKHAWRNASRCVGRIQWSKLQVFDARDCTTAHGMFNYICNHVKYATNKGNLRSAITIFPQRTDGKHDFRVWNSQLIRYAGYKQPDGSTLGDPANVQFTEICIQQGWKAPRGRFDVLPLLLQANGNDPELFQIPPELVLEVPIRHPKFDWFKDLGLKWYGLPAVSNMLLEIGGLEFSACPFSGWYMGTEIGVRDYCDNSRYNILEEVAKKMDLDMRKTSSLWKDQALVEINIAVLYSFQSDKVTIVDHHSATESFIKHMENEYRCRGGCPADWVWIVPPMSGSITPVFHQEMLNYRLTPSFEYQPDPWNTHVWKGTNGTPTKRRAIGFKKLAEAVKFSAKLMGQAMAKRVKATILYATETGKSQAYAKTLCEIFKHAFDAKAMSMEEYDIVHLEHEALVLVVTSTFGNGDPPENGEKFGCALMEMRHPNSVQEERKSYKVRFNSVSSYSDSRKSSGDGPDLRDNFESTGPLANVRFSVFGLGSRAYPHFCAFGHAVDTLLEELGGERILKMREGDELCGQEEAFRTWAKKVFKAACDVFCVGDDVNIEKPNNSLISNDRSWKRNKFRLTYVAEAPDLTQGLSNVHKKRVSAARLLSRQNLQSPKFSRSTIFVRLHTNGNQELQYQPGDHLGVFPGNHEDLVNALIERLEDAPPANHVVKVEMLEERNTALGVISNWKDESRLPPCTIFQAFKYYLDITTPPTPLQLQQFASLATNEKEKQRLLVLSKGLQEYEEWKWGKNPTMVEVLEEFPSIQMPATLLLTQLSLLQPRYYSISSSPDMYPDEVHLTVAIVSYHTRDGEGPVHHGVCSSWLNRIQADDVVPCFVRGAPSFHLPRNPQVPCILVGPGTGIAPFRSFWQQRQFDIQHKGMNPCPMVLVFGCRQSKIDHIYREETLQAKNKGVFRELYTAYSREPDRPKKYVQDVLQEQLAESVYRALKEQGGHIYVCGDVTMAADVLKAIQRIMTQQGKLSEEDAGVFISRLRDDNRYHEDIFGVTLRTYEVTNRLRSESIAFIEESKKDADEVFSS
Assay [5] in a line: Selectivity ratio of Ki for wild type recombinant rat nNOS to Ki for human nNOS.
In assay [6] the target is Nitric oxide synthase 1 (Homo sapiens, UniProt P29475).
Sequence of Nitric oxide synthase 1 (Homo sapiens, UniProt P29475) (P29475 whole entry): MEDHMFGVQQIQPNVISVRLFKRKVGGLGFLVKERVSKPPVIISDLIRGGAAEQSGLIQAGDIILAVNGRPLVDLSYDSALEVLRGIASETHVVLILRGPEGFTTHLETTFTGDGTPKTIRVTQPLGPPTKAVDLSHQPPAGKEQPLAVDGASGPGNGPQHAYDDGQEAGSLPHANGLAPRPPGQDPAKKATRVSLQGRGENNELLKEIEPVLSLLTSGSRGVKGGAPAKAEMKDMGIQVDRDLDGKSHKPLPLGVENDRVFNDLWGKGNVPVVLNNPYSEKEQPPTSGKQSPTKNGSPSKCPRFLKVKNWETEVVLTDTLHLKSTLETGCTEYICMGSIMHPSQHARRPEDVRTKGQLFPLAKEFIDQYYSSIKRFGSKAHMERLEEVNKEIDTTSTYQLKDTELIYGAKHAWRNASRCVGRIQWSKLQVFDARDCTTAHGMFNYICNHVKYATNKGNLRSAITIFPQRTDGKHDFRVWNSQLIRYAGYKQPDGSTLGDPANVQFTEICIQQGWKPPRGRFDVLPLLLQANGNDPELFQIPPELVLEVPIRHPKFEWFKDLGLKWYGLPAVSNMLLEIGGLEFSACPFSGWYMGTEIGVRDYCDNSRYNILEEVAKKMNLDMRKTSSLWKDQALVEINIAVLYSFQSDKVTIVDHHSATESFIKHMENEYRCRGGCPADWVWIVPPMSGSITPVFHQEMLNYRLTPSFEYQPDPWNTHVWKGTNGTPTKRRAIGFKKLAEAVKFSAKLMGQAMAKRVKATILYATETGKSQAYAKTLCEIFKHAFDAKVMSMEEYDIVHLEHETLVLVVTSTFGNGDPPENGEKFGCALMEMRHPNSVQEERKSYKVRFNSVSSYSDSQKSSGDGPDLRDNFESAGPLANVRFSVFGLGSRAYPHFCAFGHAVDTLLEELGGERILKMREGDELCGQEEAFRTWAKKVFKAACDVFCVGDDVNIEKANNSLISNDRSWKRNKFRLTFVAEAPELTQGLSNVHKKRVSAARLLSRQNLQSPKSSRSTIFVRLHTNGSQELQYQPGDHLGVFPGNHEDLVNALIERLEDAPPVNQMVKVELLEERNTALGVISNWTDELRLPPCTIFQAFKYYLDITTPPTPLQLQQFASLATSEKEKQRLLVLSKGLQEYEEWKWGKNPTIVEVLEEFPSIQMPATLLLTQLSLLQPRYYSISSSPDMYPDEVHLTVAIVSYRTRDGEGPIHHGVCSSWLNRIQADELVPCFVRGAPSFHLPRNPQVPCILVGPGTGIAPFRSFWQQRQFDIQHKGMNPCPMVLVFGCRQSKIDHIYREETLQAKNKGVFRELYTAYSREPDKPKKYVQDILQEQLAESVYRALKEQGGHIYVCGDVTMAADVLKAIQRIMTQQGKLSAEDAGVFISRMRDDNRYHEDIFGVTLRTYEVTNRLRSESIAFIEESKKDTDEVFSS

The term Ki denotes the dissociation constant of the complex between target and ligand, obtained from inhibition or displacement. Consider `CN(C)CCOc1cccc(OCc2ccc3ccc(N)nc3c2)c1`, for which the Ki in assay [1] was found to be 31 µM; in assay [3], 178 µM. Also, the Ratio Ki in assay [2] worked out at 44.
On to `CN(C)c1cccc(OCc2ccc3ccc(N)nc3c2)c1`, for which, in assay [4], the inhibitory constant (Ki) is greater than 5.75 µM.
With `CNCc1cccc(NCc2ccc3ccc(N)nc3c2)c1`, in assay [4], the inhibitory constant (Ki) stood at 0.569 µM.
As to `CN(C)CCCc1cccc(OCc2ccc3ccc(N)nc3c2)c1`, the inhibition constant Ki in assay [4] amounted to 0.652 µM.
Take `CNCc1cncc(OCc2ccc3ccc(N)nc3c2)c1`: the values for the Ratio Ki in assay [5] and in assay [2] were 11.8 and 77, respectively. Moreover, the Ki is 0.043 µM in assay [4], 3.31 µM in assay [1], 0.507 µM in assay [6] and 13.5 µM in assay [3].
As to `CNC(C)c1cccc(OCc2ccc3ccc(N)nc3c2)c1` (racemic), the results for the inhibition constant (Ki) in assay [4] and in assay [3] were 0.36 µM and 67.1 µM, respectively.
Regarding `CN(C)CCc1cccc(OCc2ccc3ccc(N)nc3c2)c1`, the inhibition constant Ki in assay [4] was determined as 0.468 µM; in assay [1], 17.7 µM; in assay [3] it was 150 µM.
For the molecule `Nc1ccc2ccc(COc3cccnc3)cc2n1`, the Ki in assay [4] was found to be 0.712 µM.
As for `CNCc1ccc(OCc2ccc3ccc(N)nc3c2)cc1`, the results for the inhibition constant (Ki) in assay [4] and in assay [3] were 0.332 µM and 48.7 µM, respectively.
For `CNCc1cc(OCc2ccc3ccc(N)nc3c2)ccc1F`, in assay [3], the Ki is 11.4 µM.
